Read-outs that look alike come from different tables or passages of the source.
Key:
[1] = test system: N-87 (human gastric cancer cells); experiment: MTT cancer cell growth inhibition; assay type: cell-based; details: Homo sapiens, 72 h, MTT, 72 hours incubation, N-87 cells; read-out: GI50 N-87
Procedure, shortened: (§1)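 Following overnight attachment of 1500 cells per well, each line was exposed to test drug (final 10^−5 to 10^−10 M) for 72 h in a humidified 37° C., 5% CO2 incubator. Four hours with MTT, DMSO dissolution of formazan, and a 570 nm reading yielded viability data used for GI50.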

[2] = test system: DU145 (human prostate cancer cells); experiment: MTT cancer cell growth inhibition; assay type: cell-based; details: Homo sapiens, DU-145, 72 h, MTT, 72 hours incubation, read-out: GI50 Du1
Procedure, shortened: as §1

[3] = test system: A549 (human lung cancer cells); experiment: MTT cancer cell growth inhibition; assay type: cell-based; details: Homo sapiens, A549, 72 h, MTT, 72 hours incubation, read-out: GI50 A54
Procedure, shortened: as §1

[4] = test system: PANC-1 (Pac-1, human pancreatic cancer cells); experiment: MTT cancer cell growth inhibition; assay type: cell-based; details: Homo sapiens, PANC-1, 72 h, MTT, 72 hours incubation, read-out: GI50 PAN
Procedure, shortened: as §1

[5] = test system: BGC-823 (human gastric cancer cells); experiment: MTT cancer cell growth inhibition; assay type: cell-based; details: Homo sapiens, BGC-823, 72 h, MTT, 72 hours incubation, read-out: GI50 BG
Procedure, shortened: as §1

[6] = test system: MOLT-4 (human acute lymphoblastic leukemia cells); experiment: MTT cancer cell growth inhibition; assay type: cell-based; details: Homo sapiens, MOLT-4, 72 h, MTT, 72 hours incubation, read-out: GI50 Mol
Procedure, shortened: as §1

[7] = test system: MDA-MB-231 (breast cancer cells); experiment: MTT cancer cell growth inhibition; assay type: cell-based; details: Homo sapiens, MDA-MB-231, 72 h, read-out: GI50 MDA-MB-231, MTT, 72 hours incubation, MDA-MB-231 cells
Procedure, shortened: as §1

[8] = test system: Bel-7402 (human hepatoma cells); experiment: MTT cancer cell growth inhibition; assay type: cell-based; details: Homo sapiens, Bel-7402, 72 h, MTT, 72 hours incubation, Bel-7402 cells; read-out: GI50 Bel-7402
Procedure, shortened: as §1

[9] = test system: U937 (human leukemia cells); experiment: MTT cancer cell growth inhibition; assay type: cell-based; details: Homo sapiens, U-937, 72 h, MTT, 72 hours incubation, read-out: GI50 U93
Procedure, shortened: as §1

[10] = test system: lncap (prostate cancer cells); experiment: MTT cancer cell growth inhibition; assay type: cell-based; details: Homo sapiens, LNCaP, 72 h, MTT, 72 hours incubation, read-out: GI50 lnca
Procedure, shortened: as §1

[11] = test system: SGC-7901 (human gastric cancer cells); experiment: MTT cancer cell growth inhibition; assay type: cell-based; details: Homo sapiens, SGC-7901, 72 h, MTT, 72 hours incubation, SGC-7901 cells; read-out: GI50 SGC-7901
Procedure, shortened: as §1

[12] = test system: KBM-5 (human chronic myelogenous leukemia); experiment: MTT cancer cell growth inhibition; assay type: cell-based; details: Homo sapiens, KBM5, 72 h, MTT, 72 hours incubation, KBM-5 cells; read-out: GI50 KBM-5
Procedure, shortened: as §1

[13] = test system: K562 (human leukemia cells); experiment: MTT cancer cell growth inhibition; assay type: cell-based; details: Homo sapiens, K562, 72 h, MTT, 72 hours incubation, K562 cells; read-out: GI50 K562
Procedure, shortened: as §1

[14] = test system: MCF-7 (human breast cancer cells); experiment: MTT cancer cell growth inhibition; assay type: cell-based; details: Homo sapiens, MCF7, 72 h, 72 hours incubation, read-out: GI50 MCF
Procedure, shortened: as §1

[15] = test system: KBM5-T315I (human chronic myelogenous leukemia); experiment: MTT cancer cell growth inhibition; assay type: cell-based; details: Homo sapiens, 72 h, MTT, 72 hours incubation, KBM5-T315I cells; read-out: GI50 KBM5-T315I
Procedure, shortened: as §1

[16] = test system: HT1080 (human fibrosarcoma cells); experiment: MTT cancer cell growth inhibition; assay type: cell-based; details: Homo sapiens, HT-1080, 72 h, MTT, 72 hours incubation, read-out: GI50 HT1
Procedure, shortened: as §1

[17] = test system: HCC827 (human non-small cell lung cancer cells); experiment: MTT cancer cell growth inhibition; assay type: cell-based; details: Homo sapiens, HCC827, 72 h, MTT, 72 hours incubation, HCC827 cells; read-out: GI50 HCC827
Procedure, shortened: as §1

[18] = test system: H1975 (non-small cell lung adenocarcinoma); experiment: MTT cancer cell growth inhibition; assay type: cell-based; details: Homo sapiens, NCI-H1975, 72 h, MTT, 72 hours incubation, H1975 cells; read-out: GI50 H1975
Procedure, shortened: as §1

[19] = test system: Huh-7 (human hepatoma cells); experiment: MTT cancer cell growth inhibition; assay type: cell-based; details: Homo sapiens, Huh-7, 72 h, MTT, 72 hours incubation, Huh-7 cells; read-out: GI50 Huh-7
Procedure, shortened: as §1

[20] = test system: Hela (human cervical cancer cells); experiment: MTT cancer cell growth inhibition; assay type: cell-based; details: Homo sapiens, HeLa, 72 h, MTT, 72 hours incubation, read-out: GI50 Hela
Procedure, shortened: as §1

HDAC7 = biological target: T1, HDAC7 (Homo sapiens, UniProt Q8WUI4); experiment: HDAC biochemical activity measurement (fluorescent substrate deacetylation);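 as to all read-outs here: fluorogenic deacetylation assay using acetyl-lysine substrate at 20 µM, enzyme and compound incubated 30 min at 37 °C, then developer added, fluorescence read at 360/460 nm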; details: for IC50 HDAC7: 37° C. 30 minutes
T1 sequence (Q8WUI4 1-952): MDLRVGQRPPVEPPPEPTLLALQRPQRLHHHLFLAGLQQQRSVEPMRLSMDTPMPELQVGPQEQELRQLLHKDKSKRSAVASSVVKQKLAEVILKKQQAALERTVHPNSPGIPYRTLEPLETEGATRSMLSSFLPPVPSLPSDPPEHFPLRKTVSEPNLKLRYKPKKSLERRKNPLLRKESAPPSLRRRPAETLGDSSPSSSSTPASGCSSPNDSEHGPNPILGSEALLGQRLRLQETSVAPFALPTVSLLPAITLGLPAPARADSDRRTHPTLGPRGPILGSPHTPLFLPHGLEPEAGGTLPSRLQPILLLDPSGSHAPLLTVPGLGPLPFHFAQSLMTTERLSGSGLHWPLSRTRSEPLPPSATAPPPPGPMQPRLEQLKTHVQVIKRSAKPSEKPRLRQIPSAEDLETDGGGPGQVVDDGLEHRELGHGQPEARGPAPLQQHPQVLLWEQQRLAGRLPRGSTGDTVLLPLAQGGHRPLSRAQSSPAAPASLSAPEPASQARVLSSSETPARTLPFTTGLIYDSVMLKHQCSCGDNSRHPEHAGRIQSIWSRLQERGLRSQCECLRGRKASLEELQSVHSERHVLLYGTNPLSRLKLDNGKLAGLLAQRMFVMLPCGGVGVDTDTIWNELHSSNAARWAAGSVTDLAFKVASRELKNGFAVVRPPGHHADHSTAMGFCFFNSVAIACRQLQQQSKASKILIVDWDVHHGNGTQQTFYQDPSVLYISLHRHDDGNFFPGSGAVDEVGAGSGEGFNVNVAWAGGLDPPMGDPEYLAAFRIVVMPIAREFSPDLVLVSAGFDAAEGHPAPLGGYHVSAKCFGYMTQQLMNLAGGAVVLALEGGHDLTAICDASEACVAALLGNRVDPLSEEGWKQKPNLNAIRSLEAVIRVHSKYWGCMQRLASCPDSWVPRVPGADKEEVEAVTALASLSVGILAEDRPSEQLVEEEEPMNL

Row | Structure (SMILES) | GI50 [1] [µM] | GI50 [2] [µM] | GI50 [3] [µM] | GI50 [4] [µM] | GI50 [5] [µM] | GI50 [6] [µM] | GI50 [7] [µM] | GI50 [8] [µM] | GI50 [9] [µM] | GI50 [10] [µM] | GI50 [11] [µM] | GI50 [12] [µM] | GI50 [13] [µM] | GI50 [14] [µM] | GI50 [15] [µM] | GI50 [16] [µM] | GI50 [17] [µM] | GI50 [18] [µM] | GI50 [19] [µM] | IC50 HDAC7 (HDAC7) | also measured
1 | C/C=C1\NC(=O)c2cc(F)cc(n2)CNC(=O)C[C@@H](/C=C/CCSC(C)=O)OC(=O)[C@H](CCCCN)NC1=O [Example 73] | 0.038 | 0.03 | 0.02 | 0.05 | 0.03 | 0.03 | 0.035 | 0.052 | 0.03 | 0.03 | 0.028 | 0.086 | 0.035 | 0.02 | 0.024 | 0.05 | 0.052 | 0.037 | 0.035 | no activity | GI50 [20]: 0.08 µM
2 | C/C=C1\NC(=O)c2cccc(n2)CNC(=O)C[C@@H](/C=C/CCS)OC(=O)[C@H](Cc2ccc(O)cc2)NC1=O [Compound 127] | 0.046 | 0.07 | 0.05 | 0.05 | 0.05 | 0.08 | 0.037 | 0.037 | 0.05 | 0.08 | 0.036 | 0.053 | 0.028 | 0.07 | 0.028 | 0.08 | 0.038 | 0.036 | 0.071 | no activity | GI50 [20]: 0.08 µM
3 | C/C=C1\NC(=O)c2cc(SCC)cc(n2)CNC(=O)C[C@@H](/C=C/CCSC(=O)CCCCCCC)OC(=O)[C@H](C(C)C)NC1=O [Compound 248] | 0.083 | – | – | – | – | – | 0.045 | 0.029 | – | – | 0.026 | 0.023 | 0.048 | – | 0.072 | – | 0.093 | 0.065 | 0.033 | – | GI50 ([2]; DU145 cells): 0.03 µM; GI50 ([3]; A549 cells): 0.03 µM; GI50 ([4]; PANC-1 cells): 0.02 µM; GI50 ([5]; BGC-823 cells): 0.06 µM; GI50 ([6]; MOLT-4 cells): 0.03 µM; GI50 ([9]; U937 cells): 0.08 µM; GI50 ([10]; lncap cells): 0.03 µM; GI50 ([14]; MCF-7 cells): 0.03 µM; GI50 ([16]; HT1080 cells): 0.05 µM; GI50 ([20]; Hela cells): 0.06 µM; IC50 (μM) HDAC7 (HDAC7): no activity
4 | C/C=C1\NC(=O)c2cccc(n2)CNC(=O)C[C@@H](/C=C/CCS)OC(=O)[C@H](CC)NC1=O [Example 28] | 0.042 | 0.43 | 0.42 | 0.02 | 1.1 | 0.08 | 0.086 | 0.092 | 2.11 | 0.39 | 0.034 | 0.073 | 0.035 | 0.93 | 0.051 | 0.04 | 0.037 | 0.035 | 0.073 | no activity | GI50 [20]: 0.81 µM
5 | C/C=C1\NC(=O)c2ccc(F)c(n2)CNC(=O)C[C@@H](/C=C/CCS)OC(=O)[C@H](Cc2cccc3ccccc23)NC1=O [Compound 126] | 0.033 | 0.06 | 0.03 | 0.03 | 0.1 | 0.09 | 0.029 | 0.049 | 0.07 | 0.02 | 0.081 | 0.041 | 0.079 | 0.02 | 0.037 | 0.05 | 0.038 | 0.033 | 0.051 | no activity | GI50 [20]: 0.13 µM
6 | C/C=C1\NC(=O)c2nc(ccc2SC)CNC(=O)C[C@@H](/C=C/CCSC(=O)CCCCCC)OC(=O)[C@H](C(C)C)NC1=O [Compound 150] | 0.033 | – | – | – | – | – | 0.021 | 0.058 | – | – | 0.087 | 0.026 | 0.055 | – | 0.039 | – | 0.063 | 0.079 | 0.046 | no activity | GI50 ([2]; DU145 cells): 0.04 µM; GI50 ([3]; A549 cells): 0.03 µM; GI50 ([4]; PANC-1 cells): 0.03 µM; GI50 ([5]; BGC-823 cells): 0.03 µM; GI50 ([6]; MOLT-4 cells): 0.08 µM; GI50 ([9]; U937 cells): 0.03 µM; GI50 ([10]; lncap cells): 0.06 µM; GI50 ([14]; MCF-7 cells): 0.04 µM; GI50 ([16]; HT1080 cells): 0.08 µM; GI50 ([20]; Hela cells): 0.06 µM
